Measurements as given in patent US20240208962A1, “MICROBIOCIDAL QUINOLINE/QUINOXALINE BENZOTHIAZINE DERIVATIVES” (SYNGENTA CROP PROTECTION AG, priority 2021, published 2024).

Tests used:
[1] = test system: Venturia inaequalis; experiment: Comparative: Venturia inaequalis / apple / preventative (Scab on apple); type: in vivo; details: rate of application 200 ppm, Venturia inaequalis on apple seedlings, emulsifiable concentrate, 11-13 days after application
[2] = test system: Botryotinia fuckeliana (Botrytis cinerea); experiment: Botryotinia fuckeliana (Botrytis cinerea) / liquid culture (Gray mould); type: cell-based; details: liquid culture Vogels broth, 3-4 days after application, read-out: control of Botryotinia fuckeliana (inhibition of growth, photometric)
[3] = test system: Mycosphaerella graminicola (Septoria tritici); experiment: Comparative: Mycosphaerella graminicola (Septoria tritici) on wheat / preventative, emulsifiable concentrate; type: in vivo; details: rate of application 60 ppm, Mycosphaerella graminicola on wheat cv. Riband, 16 to 19 days after application
[4] = test system: Mycosphaerella graminicola (Septoria tritici); experiment: Mycosphaerella graminicola (Septoria tritici) on wheat / preventative; type: in vivo; details: Zymoseptoria tritici, wheat plants cv. Riband, preventative spray, 16 to 19 days after application, read-out: control of Mycosphaerella graminicola compared to untreated control
[5] = test system: Botrytis cinerea; experiment: Comparative: Botrytis cinerea / tomato / preventative; type: in vivo; details: rate of application 200 ppm, Botrytis cinerea on tomato, emulsifiable concentrate, 5-6 days after application
[6] = test system: Colletotrichum lagenarium; experiment: Comparative: Colletotrichum lagenarium / cucumber / preventative (Anthracnose); type: in vivo; details: rate of application 200 ppm, Colletotrichum lagenarium on cucumber cv. Wisconsin, emulsifiable concentrate, 6-8 days after application
[7] = test system: Glomerella lagenarium (Colletotrichum lagenarium); experiment: Glomerella lagenarium (Colletotrichum lagenarium) / liquid culture (Anthracnose); type: cell-based; details: Colletotrichum orbiculare, liquid culture PDB, 3-4 days after application, read-out: control of Glomerella lagenarium (inhibition of growth, photometric)
[8] = test system: Monographella nivalis (Microdochium nivale); experiment: Monographella nivalis (Microdochium nivale) / liquid culture (foot rot cereals); type: cell-based; details: liquid culture PDB, 4 to 5 days after application, read-out: control of Monographella nivalis (inhibition of growth, photometric)
[9] = test system: Fusarium culmorum; experiment: microbe, parasite or virus in culture; type: cell-based; details: read-out: control of Fusarium culmorum (inhibition of growth, photometric)

| SMILES | Efficacy (% control) [1] [% control] | inhibition at 20 ppm [2] [%] | Efficacy (% control) [3] [% control] | pest or weed control at 60 ppm [4] [%] | melting point [°C] | Efficacy (% control) [5] [% control] | Efficacy (% control) [6] [% control] | inhibition at 20 ppm [7] [%] | inhibition at 20 ppm [8] [%] | inhibition at 20 ppm [9] [%] |
| --- | --- | --- | --- | --- | --- | --- | --- | --- | --- | --- |
| Cc1cccc2c1SC(C)(C)N=C2c1cnc2c(F)c(F)ccc2c1 [Compound E.01, 4-(7,8-difluoro-3-quinolyl)-2,2,8-trimethyl-1,3-benzothiazine] | 97 | ≥ 80 | 72 | ≥ 80 | 137 to 139 | 97 | 97 | ≥ 80 |  |  |
| Cc1cccc2c1SC(C)(C)N=C2c1cnc2c(F)cccc2c1 [Compound E.14, 4-(8-fluoro-3-quinolyl)-2,2,8-trimethyl-1,3-benzothiazine] | 100 | ≥ 80 | 83 | ≥ 80 |  | 93 | 97 | ≥ 80 | ≥ 80 | ≥ 80 |
| Cc1cccc2c1SC(C)(C(F)F)N=C2c1cnc2c(F)cccc2c1 (stereo not shown) [E.15, 2-(difluoromethyl)-4-(8-fluoro-3-quinolyl)-2,8-dimethyl-1,3-benzothiazine] |  | ≥ 80 |  |  |  |  |  | ≥ 80 | ≥ 80 | ≥ 80 |
| CC1(C)N=C(c2cnc3c(F)cccc3c2)c2ccc(F)c(F)c2S1 [E.03, 7,8-difluoro-4-(8-fluoro-3-quinolyl)-2,2-dimethyl-1,3-benzothiazine] |  | ≥ 80 |  | ≥ 80 |  |  |  | ≥ 80 | ≥ 80 | ≥ 80 |
| Cc1c(Cl)ccc2c1SC(C)(C)N=C2c1cnc2c(F)c(F)ccc2c1 [E.21, 7-chloro-4-(7,8-difluoro-3-quinolyl)-2,2,8-trimethyl-1,3-benzothiazine] |  | ≥ 80 |  |  | 161 to 163 |  |  |  | ≥ 80 | ≥ 80 |
| Cc1c(Cl)ccc2c1SC(C)(C)N=C2c1cnc2c(F)cccc2c1 [E.25, 7-chloro-4-(8-fluoro-3-quinolyl)-2,2,8-trimethyl-1,3-benzothiazine] |  | ≥ 80 |  | ≥ 80 | 68 to 70 |  |  | ≥ 80 |  | ≥ 80 |
| Cc1ccc2c(c1Cl)SC(C)(C)N=C2c1cnc2c(F)cccc2c1 [Compound E.13, 8-chloro-4-(8-fluoro-3-quinolyl)-2,2,7-trimethyl-1,3-benzothiazine] |  | ≥ 80 | 96 | ≥ 80 |  |  |  | ≥ 80 | ≥ 80 | ≥ 80 |
| COc1c(Cl)ccc2c1SC(C)(C)N=C2c1cnc2c(F)cccc2c1 [E.24, 7-chloro-4-(8-fluoro-3-quinolyl)-8-methoxy-2,2-dimethyl-1,3-benzothiazine] |  | ≥ 80 |  |  |  |  |  |  | ≥ 80 | ≥ 80 |
| Cc1ccc2c(c1F)SC(C)(C)N=C2c1cnc2c(F)c(F)ccc2c1 [E.16, 4-(7,8-difluoro-3-quinolyl)-8-fluoro-2,2,7-trimethyl-1,3-benzothiazine] |  | ≥ 80 |  | ≥ 80 |  |  |  |  | ≥ 80 | ≥ 80 |
| Cc1c(C#N)ccc2c1SC(C)(C)N=C2c1cnc2c(F)cccc2c1 [E.23, 4-(8-fluoro-3-quinolyl)-2,2,8-trimethyl-1,3-benzothiazine-7-carbonitrile] |  | ≥ 80 |  |  | 88 to 90 |  |  |  | ≥ 80 | ≥ 80 |
| Cc1ccc2c(c1C#N)SC(C)(C)N=C2c1cnc2c(F)cccc2c1 [E.10, 4-(8-fluoro-3-quinolyl)-2,2,7-trimethyl-1,3-benzothiazine-8-carbonitrile] |  | ≥ 80 |  |  |  |  |  |  |  | ≥ 80 |
| CSc1cccc2c1SC(C)(C)N=C2c1cnc2c(F)cccc2c1 [E.04, 4-(8-fluoro-3-quinolyl)-2,2-dimethyl-8-methylsulfanyl-1,3-benzothiazine] |  | ≥ 80 |  |  |  |  |  | ≥ 80 | ≥ 80 | ≥ 80 |
| Cc1nc2c(F)cccc2cc1C1=NC(C)(C)Sc2c(Cl)cccc21 [E.20, 8-chloro-4-(8-fluoro-2-methyl-3-quinolyl)-2,2-dimethyl-1,3-benzothiazine] |  | ≥ 80 |  |  | 134 to 136 |  |  | ≥ 80 | ≥ 80 |  |
| Cc1c(C#N)ccc2c1SC(C)(C)N=C2c1cnc2c(F)c(F)ccc2c1 [E.22, 4-(7,8-difluoro-3-quinolyl)-2,2,8-trimethyl-1,3-benzothiazine-7-carbonitrile] |  | ≥ 80 |  |  | 216 to 218 |  |  |  |  |  |
| Cc1ccc2c(c1C)SC(C)(C)N=C2c1cnc2c(F)cccc2c1 [E.11, 4-(8-fluoro-3-quinolyl)-2,2,7,8-tetramethyl-1,3-benzothiazine] |  | ≥ 80 |  | ≥ 80 |  |  |  | ≥ 80 | ≥ 80 | ≥ 80 |
| CC1(C)N=C(c2cnc3c(F)cccc3c2)c2cccc(F)c2S1 [Comparative compound A, reference compound] | 100 |  | 11 |  |  | 95 | 80 |  |  |  |
| CC1(C)N=C(c2cnc3c(F)cccc3c2)c2cccc(Cl)c2S1 [Compound E.12, 8-chloro-4-(8-fluoro-3-quinolyl)-2,2-dimethyl-1,3-benzothiazine] | 100 | ≥ 80 | 92 | ≥ 80 | 158 to 160 | 95 | 100 | ≥ 80 | ≥ 80 | ≥ 80 |
| Cc1cccc2c1S[C@](C)(C(F)F)N=C2c1cnc2c(F)cccc2c1 [E.06, (2R)-2-(difluoromethyl)-4-(8-fluoro-3-quinolyl)-2,8-dimethyl-1,3-benzothiazine] |  | ≥ 80 |  |  |  |  |  | ≥ 80 | ≥ 80 | ≥ 80 |
| CC1(Cc2ccc(Cl)nc2)N=C(c2cnc3c(F)c(F)ccc3c2)c2cccc(Cl)c2S1 (stereo not shown) [E.18, 8-chloro-2-[(6-chloro-3-pyridyl)methyl]-4-(7,8-difluoro-3-quinolyl)-2-methyl-1,3-benzothiazine] |  | ≥ 80 |  |  |  |  |  | ≥ 80 | ≥ 80 |  |
| Cc1ccc2c(c1F)SC(C)(C)N=C2c1cnc2c(F)cccc2c1 [Compound E.08, 8-fluoro-4-(8-fluoro-3-quinolyl)-2,2,7-trimethyl-1,3-benzothiazine] | 80 | ≥ 80 | 89 | ≥ 80 | 159 to 161 | 97 |  | ≥ 80 | ≥ 80 | ≥ 80 |
| CC1(Cc2ccc(Cl)nc2)N=C(c2cnc3c(F)cccc3c2)c2cccc(Cl)c2S1 (stereo not shown) [E.19, 8-chloro-2-[(6-chloro-3-pyridyl)methyl]-4-(8-fluoro-3-quinolyl)-2-methyl-1,3-benzothiazine] |  | ≥ 80 |  |  |  |  |  | ≥ 80 | ≥ 80 | ≥ 80 |
| CC1(C)N=C(c2cnc3c(F)c(F)ccc3c2)c2cccc(Cl)c2S1 [Compound E.02, 8-chloro-4-(7,8-difluoro-3-quinolyl)-2,2-dimethyl-1,3-benzothiazine] | 97 | ≥ 80 | 99 | ≥ 80 | 134 to 136 | 95 | 97 | ≥ 80 |  |  |
| CC1(C)N=C(c2cnc3c(F)cccc3n2)c2cccc(Cl)c2S1 [E.17, 8-chloro-4-(5-fluoroquinoxalin-2-yl)-2,2-dimethyl-1,3-benzothiazine] |  | ≥ 80 |  |  |  |  |  | ≥ 80 | ≥ 80 | ≥ 80 |
| CC1(C(F)F)N=C(c2cnc3c(F)cccc3c2)c2cccc(Cl)c2S1 (stereo not shown) [E.09, 8-chloro-2-(difluoromethyl)-4-(8-fluoro-3-quinolyl)-2-methyl-1,3-benzothiazine] |  | ≥ 80 |  |  |  |  |  | ≥ 80 | ≥ 80 | ≥ 80 |
| CC1(C)N=C(c2cnc3c(F)cccc3c2)c2ccc(Cl)c(Cl)c2S1 [E.05, 7,8-dichloro-4-(8-fluoro-3-quinolyl)-2,2-dimethyl-1,3-benzothiazine] |  | ≥ 80 |  | ≥ 80 |  |  |  | ≥ 80 | ≥ 80 | ≥ 80 |
